Assays:
[1] = tested on: HBV viral load in AD38 cells; assay: Viral load production in AD38 cells, quantitative PCR of the core sequence in supernatant; type: cell-based; settings: Hepatitis B virus, 144 h, 10 μM compound, 6 days at 37° C., supernatant qPCR, relative to DMSO control; read-out: AD38 Viral Load (%) (VL with cmpd/VL in DMSO control) at 10 μM
Description: (§1) Example 2: Assay Measuring Activity of Compounds on Viral Production in and on Viability of AD38 Cells
(§2) AD38 cells were then re-suspended with 10 mL of Treatment Medium and counted. Wells of a collagen coated 96-well NUNC microtiter plate were seeded at 50,000/well in 180 μL of Treatment Medium, and 20 μL of in treatment media with either 10% DMSO (Control) or a 10× solution of compound in 10% DMSO was added. Plates were incubated for 6 days at 37° C.
Viral load production was assayed by quantitative PCR of the core sequence. […] The PCR mixture was incubated at 45° C. for 5 minutes, then 95° C. for 10 min, followed by 40 cycles of 10 seconds at 95° C. and 20 seconds at 60° C. Viral load was quantitated against known standards by using ViiA™ 7 Software. Viral load in the supernatant from wells with treated cells were compared against viral load in supernatant from DMSO control wells (>3 per plate).

AD38 cells = assay: Viability of AD38 cells (Promega CellTiter-Glo); type: cell-based; settings: 10 μM compound, 6 days, CellTiter-Glo luminescence normalized to DMSO control (100%)
Description: as §1, §2
At the end of compound treatment period cell viability was assessed using a Promega CellTiter-Glo protocol. All supernatant was removed the previously treated 96-well microtiter plate, and 50 μL Tetracycline-free treatment medium (DMEM/F12 (1:1), 1× Pen/step (cat #: 30-002-CL, Mediatech, Inc), with 2% FBS, Tet-system approved (cat #: 631106, Clontech), and 1% DMSO was added back to each well. Another 50 μL of CellTiter-Glo reagent solution (Promega, G7573) was then added at room temperature and the contents mixed for 2 minutes on an orbital shaker to induce cell lysis. This was followed by incubation at room temperature for 10 minutes to stabilize the luminescent signal. The luminescence was recorded for 0.2 seconds per well on a Tecan multimode plate reader (Infinite M1000 pro). The luminescent signal from each well was normalized against that of untreated (DMSO) control wells. All results were reported percent viability (with controls being 100%).

| SMILES | activity at 10 µM [1] [%] | AD38 Viability Normalized Result (cmpd/DMSO %) at 10 μM (AD38 cells) [%] |
| --- | --- | --- |
| Cc1c(C(=O)NCc2cnc(C(F)(F)F)s2)ccc2c1NC(=O)c1ccccc1S2 [compound 1766] | 1.3 | 98 |
| N#Cc1cccc(-c2ncc(CNC(=O)c3ccc4c(c3)NC(=O)c3ccccc3O4)s2)c1 [1714-A] | 49.2 | 106 |
| COc1c(C)cc(-c2ncc(CNC(=O)c3ccc4c(c3)NC(=O)c3ccccc3S4(=O)=O)s2)cc1C [1806-A, N-((2-(4-methoxy-3,5-dimethylphenyl)thiazol-5-yl)methyl)-11-oxo-10, 11-dihydrodibenzo [b, f] [1, 4] thiazepine-8-carboxamide 5,5-dioxide] | 0.3 | 66 |
| CN1CC[C@H](Oc2ccc(-c3ncc(CNC(=O)c4ccc5c(c4)NC(=O)c4ccccc4S5(=O)=O)s3)cc2)C1 [compound 11134, (S)—N-((2-(4-((1-methylpyrrolidin-3-yl)oxy)phenyl)thiazol-5-yl)methyl)-11-oxo-10, 11-dihydrodibenzo [b, f] [1, 4] thiazepine-8-carboxamide 5,5-dioxide] | 1.4 | 90 |
| O=C(NCc1cnc(-c2ccc(SCCCN3CCOCC3)cc2)s1)c1ccc2c(c1)NC(=O)c1ccccc1S2(=O)=O [compound 11066, N-((2-(4-((3-morpholinopropyl)thio)phenyl)thiazol-5-yl)methyl)-11-oxo-10, 11-dihydrodibenzo [b, f] [1, 4] thiazepine-8-carboxamide 5,5-dioxide] | 0.4 | 104 |
| Nc1ncc(-c2ncc(CNC(=O)c3ccc4c(c3)NC(=O)c3ccccc3S4(=O)=O)s2)cn1 [compound 1673] | 3.2 | 105 |
| O=C(NCc1cnc(-c2ccc(OCCCOn3nnc4cccnc43)cc2)s1)c1ccc2c(c1)NC(=O)c1ccccc1S2(=O)=O [11108-B, N-((2-(4-(3-((3H-[1,2,3]triazolo[4,5-b]pyridin-3-yl)oxy)propoxy)phenyl)thiazol-5-yl)methyl)-11-oxo-10,11-dihydrodibenzo[b, f] [1,4]thiazepine-8-carboxamide 5,5-dioxide] | 0.8 | 101 |
| O=C(NCc1cnc(-c2ccc(O)cc2)s1)c1ccc2c(c1)NC(=O)c1cccc(F)c1S2 [compound 1753] | 2.4 | 97 |
| O=C(NCc1cnc(-c2ccc(N3CCCC3=O)cc2)s1)c1ccc2c(c1)NC(=O)c1ccccc1S2(=O)=O [compound 1858] | 0.7 | 103 |
| CNCCCOc1ccc(-c2ncc(CNC(=O)c3ccc4c(c3)NC(=O)c3ccccc3S4(=O)=O)s2)cc1 [compound 1989, N-((2-(4-(3-(methylamino)propoxy)phenyl)thiazol-5-yl)methyl)-11-oxo-10, 11-dihydrodibenzo [b, f] [1, 4] thiazepine-8-carboxamide 5,5-dioxide] | 2.5 | 90 |
| CN(C)CCCCc1ccc(-c2ncc(CNC(=O)c3ccc4c(c3)NC(=O)c3ccccc3S4(=O)=O)s2)cc1 [compound 11005, N-((2-(4-(4-(dimethylamino)butyl)phenyl)thiazol-5-yl)methyl)-11-oxo-10, 11-dihydrodibenzo [b, f] [1, 4] thiazepine-8-carboxamide 5,5-dioxide] | 1.9 | 102 |
| CN(C)CCCCc1cnn(-c2ncc(CNC(=O)c3ccc4c(c3)NC(=O)c3ccccc3S4(=O)=O)s2)c1 [compound 11099] | 3.9 | 90 |
| O=C(NCc1cnc(-c2ccc(O)nc2)s1)c1ccc2c(c1)NC(=O)c1ccccc1O2 [compound 1706, N-((2-(6-hydroxypyridin-3-yl)thiazol-5-yl)methyl)-11-oxo-10, 11-dihydrodibenzo [b, f] [1, 4] oxazepine-8-carboxamide] | 57.5 | 103 |
| Cc1cc2c(cc1C(=O)NCc1cnc(-c3ccc(O)cc3)s1)NC(=O)c1ccccc1S2 [compound 1758] | 3.8 | 15 |
| Cl.O=C(NCc1cnc(-c2ccc(N3CCNCC3)cc2)s1)c1ccc2c(c1)NC(=O)c1ccccc1S2(=O)=O [compound 11018, 11-oxo-N-((2-(4-(piperazin-1-yl)phenyl)thiazol-5-yl)methyl)-10, 11-dihydrodibenzo [b, f] [1, 4] thiazepine-8-carboxamide 5,5-dioxide hydrochloride] | 3.9 | 98 |
| O=C(NCc1cnc(N2C[C@H](O)CC[C@@H](O)C2)s1)c1ccc2c(c1)NC(=O)c1ccccc1S2(=O)=O [compound 1972] | 23.5 | 100 |
| CN(C)C(=O)c1ccc(-c2ncc(CNC(=O)c3ccc4c(c3)NC(=O)c3ccccc3S4(=O)=O)s2)cc1 [compound 1944] | 2.5 | 93 |
| O=C(O)CNc1ncc(CNC(=O)c2ccc3c(c2)NC(=O)c2ccccc2S3)s1 [compound 1602, (5-((11-oxo-10, 11-dihydrodibenzo [b, f] [1, 4]thiazepine-8-carboxamido)methyl)thiazol-2-yl) glycine] | 59.8 | 97 |
| Cc1nc(C)c(CNC(=O)c2ccc3c(c2)NC(=O)c2ccccc2O3)s1 [compound 1769] | 43.3 | 101 |
| CN(C)CCCOc1ccc(-c2ncc(CNC(=O)c3ccc4c(c3)NC(=O)c3ccccc3S4(=O)=O)s2)nc1 [compound 11011, N-((2-(5-(3-(dimethylamino)propoxy)pyridin-2-yl)thiazol-5-yl)methyl)-11-oxo-10, 11-dihydrodibenzo [b, f] [1, 4] thiazepine-8-carboxamide 5,5-dioxide] | 5.3 | 98 |
| Cc1ncc(CNC(=O)c2ccc3c(c2)NC(=O)c2ccccc2S3(=O)=O)s1 [compound 1528] | 0.8 | 76 |
| O=C(O)COc1ccc(-c2ncc(CNC(=O)c3ccc4c(c3)NC(=O)c3ccccc3S4(=O)=O)s2)cc1 [compound 1581, 2-(4-(5-((5,5-dioxido-11-oxo-10, 11-dihydrodibenzo [b, f] [1, 4]thiazepine-8-carboxamido)methyl)thiazol-2-yl)phenoxy) acetic acid] | 34.4 | 93 |
| CCCN1c2ccc(C(=O)NCc3cnc(-c4ccc(C#N)cc4)s3)cc2NC(=O)c2ccccc21 [compound 1917] | 1.1 | 108 |
| CS(=O)(=O)c1ccc(-c2ncc(CNC(=O)c3ccc4c(c3)NC(=O)c3ccccc3S4(=O)=O)s2)cc1 [compound 1855] | 2.5 | 102 |
| O=C(NCc1cnc(C(F)(F)F)s1)c1cc2c(cc1Cl)S(=O)(=O)c1ccccc1C(=O)N2 [compound 1934] | 40 | 69 |
| O=C(NCc1cnc(-c2ccc(O)cc2Cl)s1)c1ccc2c(c1)NC(=O)c1ccccc1O2 [compound 1703] | 3.1 | 93 |
| Cl.NCCCCc1ccc(-c2ncc(CNC(=O)c3ccc4c(c3)NC(=O)c3ccccc3S4(=O)=O)s2)cc1 [compound 11004, N-((2-(4-(4-aminobutyl)phenyl)thiazol-5-yl)methyl)-11-oxo-10, 11-dihydrodibenzo [b, f] [1, 4] thiazepine-8-carboxamide 5,5-dioxide hydrochloride salt] | 5.5 | 94 |
| O=C(NCc1cnc(-n2cccn2)s1)c1ccc2c(c1)NC(=O)c1ccccc1S2(=O)=O [compound 1960] | 0.8 | 106 |
| Cc1c(C(=O)NCc2cnc(-c3ccccn3)s2)ccc2c1NC(=O)c1ccccc1S2(=O)=O [compound 11077] | 0.9 | 90 |
| COC(=O)c1ccc(-c2ncc(CNC(=O)c3ccc4c(c3)NC(=O)c3ccccc3S4)s2)cc1 [1599-A, methyl 4-(5-((11-oxo-10, 11-dihydrodibenzo [b, f] [1, 4]thiazepine-8-carboxamido)methyl)thiazol-2-yl) benzoate] | 50.9 | 98 |
